Assay results reported in ChEMBL document CHEMBL3885861, “Open TG-GATES”.

Species on record: Rattus norvegicus
Experiment: Open TG-GATES - Regimen: Daily Repeat
Format: toxicity, organism-based, Sprague-Dawley
Parameters: regimen Daily Repeat, gender Male, age 6 weeks
Conditions: in vivo, po, route gavage; for APTT / Bas / Eos / Fbg / Hb / Ht / Lym / MCH / MCHC / MCV / Mono / Neu / PT / Plat / RBC / Ret / WBC: tissue Blood; for KIDNEY_L / KIDNEY_R / KIDNEY_TOTAL: tissue Kidney; for LIVER: tissue Liver; for A/G / ALP / ALT / AST / BUN / CRE / Ca / Cl / DBIL / GLC / IP / K / LDH / Na / PL / RALB / TBIL / TC / TG / TP / gamma-GTP: tissue Plasma
[1] = 60 mg/kg, 72 h, dose level Middle, time 3 day
[2] = 60 mg/kg, […], dose level Middle, time 7 day
[3] = 60 mg/kg, […], dose level Middle, time 14 day
[4] = 60 mg/kg, […], dose level Middle, time 28 day
[5] = 200 mg/kg, 72 h, dose level High, time 3 day
[6] = 200 mg/kg, […], dose level High, time 7 day
[7] = 200 mg/kg, […], dose level High, time 14 day
[8] = 200 mg/kg, […], dose level High, time 28 day

Cn1c(=O)c2[nH]cnc2n(C)c1=O.O [THEOPHYLLINE]
TERMINAL_BW [1]: 242.6 g
APTT [1]: 21.7 s
Bas [1]: 0%
Eos [1]: 0.6%
Fbg [1]: 303.4 mg/dL
Hb [1]: 13.4 g/dL
Ht [1]: 40.4%
Lym [1]: 78.4%
MCH [1]: 20.8 pg
MCHC [1]: 33.2%
MCV [1]: 62.8 fL
Mono [1]: 3.2%
Neu [1]: 16.4%
PT [1]: 15.5 s
Plat [1]: 123.5 x10_4/uL
RBC [1]: 644.2 x10_4/ul
Ret [1]: 7.4%
WBC [1]: 126 x10_2/uL
KIDNEY_L [1]: 1 g
KIDNEY_R [1]: 1.1 g
KIDNEY_TOTAL [1]: 2.1 g
LIVER [1]: 10.8 g
A/G [1]: 1.2
ALP [1]: 1599.4 IU/L
ALT [1]: 44.2 IU/L
AST [1]: 69.2 IU/L
BUN [1]: 14.8 mg/dL
CRE [1]: 0.2 mg/dL
Ca [1]: 10.7 mg/dL
Cl [1]: 106.2 meq/L
DBIL [1]: 0 mg/dL
GLC [1]: 186 mg/dL
IP [1]: 8.4 mg/dL
K [1]: 4.2 meq/L
LDH [1]: 146.6 IU/L
Na [1]: 142 meq/L
PL [1]: 132.8 mg/dL
RALB [1]: 2.9 g/dL
TBIL [1]: 0.004 mg/dL
TC [1]: 80.4 mg/dL
TG [1]: 75 mg/dL
TP [1]: 5.3 g/dL
gamma-GTP [1]: 1.4 IU/L
TERMINAL_BW [2]: 265.8 g
TERMINAL_BW [3]: 313.9 g
TERMINAL_BW [4]: 384.1 g
APTT [2]: 23.4 s
Bas [2]: 0%
Eos [2]: 0.8%
Fbg [2]: 299.4 mg/dL
Hb [2]: 13.9 g/dL
Ht [2]: 40.6%
Lym [2]: 79%
MCH [2]: 21.2 pg
MCHC [2]: 34.2%
MCV [2]: 61.9 fL
Mono [2]: 2.8%
Neu [2]: 16.2%
PT [2]: 15.4 s
Plat [2]: 109.7 x10_4/uL
RBC [2]: 655.8 x10_4/ul
Ret [2]: 5.4%
WBC [2]: 123.4 x10_2/uL
APTT [3]: 24.1 s
Bas [3]: 0%
Eos [3]: 0.8%
Fbg [3]: 336.8 mg/dL
Hb [3]: 14.5 g/dL
Ht [3]: 42.9%
Lym [3]: 77.8%
MCH [3]: 20.6 pg
MCHC [3]: 33.9%
MCV [3]: 60.7 fL
Mono [3]: 2.4%
Neu [3]: 18%
PT [3]: 15.1 s
Plat [3]: 109.2 x10_4/uL
RBC [3]: 706.4 x10_4/ul
Ret [3]: 4.9%
WBC [3]: 119.3 x10_2/uL
APTT [4]: 25.6 s
Bas [4]: 0%
Eos [4]: 1%
Fbg [4]: 330.2 mg/dL
Hb [4]: 15.8 g/dL
Ht [4]: 45.7%
Lym [4]: 78%
MCH [4]: 19.8 pg
MCHC [4]: 34.5%
MCV [4]: 57.3 fL
Mono [4]: 3%
Neu [4]: 16.8%
PT [4]: 15.6 s
Plat [4]: 99.5 x10_4/uL
RBC [4]: 798 x10_4/ul
Ret [4]: 3.3%
WBC [4]: 104.8 x10_2/uL
KIDNEY_L [2]: 1.2 g
KIDNEY_R [2]: 1.2 g
KIDNEY_TOTAL [2]: 2.4 g
KIDNEY_L [3]: 1.3 g
KIDNEY_R [3]: 1.3 g
KIDNEY_TOTAL [3]: 2.6 g
KIDNEY_L [4]: 1.5 g
KIDNEY_R [4]: 1.5 g
KIDNEY_TOTAL [4]: 3 g
LIVER [2]: 11.6 g
LIVER [3]: 13.8 g
LIVER [4]: 16.3 g
A/G [2]: 1.2
ALP [2]: 1497.8 IU/L
ALT [2]: 42.2 IU/L
AST [2]: 77.6 IU/L
BUN [2]: 17.6 mg/dL
CRE [2]: 0.2 mg/dL
Ca [2]: 10.4 mg/dL
Cl [2]: 107 meq/L
DBIL [2]: 0 mg/dL
GLC [2]: 195.4 mg/dL
IP [2]: 7.8 mg/dL
K [2]: 4.3 meq/L
LDH [2]: 175.4 IU/L
Na [2]: 142.2 meq/L
PL [2]: 140.2 mg/dL
RALB [2]: 3 g/dL
TBIL [2]: 0.006 mg/dL
TC [2]: 72 mg/dL
TG [2]: 86.8 mg/dL
TP [2]: 5.6 g/dL
gamma-GTP [2]: 1.6 IU/L
A/G [3]: 1.1
ALP [3]: 1338.2 IU/L
ALT [3]: 43 IU/L
AST [3]: 73.8 IU/L
BUN [3]: 17 mg/dL
CRE [3]: 0.2 mg/dL
Ca [3]: 10.3 mg/dL
Cl [3]: 105.6 meq/L
DBIL [3]: 0 mg/dL
GLC [3]: 181 mg/dL
IP [3]: 8 mg/dL
K [3]: 4.1 meq/L
LDH [3]: 178 IU/L
Na [3]: 142.2 meq/L
PL [3]: 143.4 mg/dL
RALB [3]: 3.1 g/dL
TBIL [3]: 0.006 mg/dL
TC [3]: 79 mg/dL
TG [3]: 83.6 mg/dL
TP [3]: 5.8 g/dL
gamma-GTP [3]: 2.2 IU/L
A/G [4]: 1.1
ALP [4]: 1071.4 IU/L
ALT [4]: 40.8 IU/L
AST [4]: 67.8 IU/L
BUN [4]: 16.2 mg/dL
CRE [4]: 0.2 mg/dL
Ca [4]: 10.3 mg/dL
Cl [4]: 106 meq/L
DBIL [4]: 0 mg/dL
GLC [4]: 189.8 mg/dL
IP [4]: 7.4 mg/dL
K [4]: 4.1 meq/L
LDH [4]: 137.6 IU/L
Na [4]: 143.2 meq/L
PL [4]: 135.8 mg/dL
RALB [4]: 3.2 g/dL
TBIL [4]: 0.024 mg/dL
TC [4]: 71.2 mg/dL
TG [4]: 97.4 mg/dL
TP [4]: 6.1 g/dL
gamma-GTP [4]: 1.8 IU/L
TERMINAL_BW [5]: 221.1 g
APTT [5]: 22.1 s
Bas [5]: 0%
Eos [5]: 0.5%
Fbg [5]: 438.5 mg/dL
Hb [5]: 15 g/dL
Ht [5]: 44.8%
Lym [5]: 77.8%
MCH [5]: 21.1 pg
MCHC [5]: 33.5%
MCV [5]: 63 fL
Mono [5]: 3.8%
Neu [5]: 15.8%
PT [5]: 16.7 s
Plat [5]: 134.2 x10_4/uL
RBC [5]: 711.5 x10_4/ul
Ret [5]: 6.6%
WBC [5]: 107.4 x10_2/uL
KIDNEY_L [5]: 0.9 g
KIDNEY_R [5]: 0.9 g
KIDNEY_TOTAL [5]: 1.9 g
LIVER [5]: 9.5 g
A/G [5]: 1.2
ALP [5]: 1278.8 IU/L
ALT [5]: 42.5 IU/L
AST [5]: 73.2 IU/L
BUN [5]: 15.2 mg/dL
CRE [5]: 0.2 mg/dL
Ca [5]: 10.9 mg/dL
Cl [5]: 106.8 meq/L
DBIL [5]: 0 mg/dL
GLC [5]: 178.8 mg/dL
IP [5]: 7.3 mg/dL
K [5]: 4.3 meq/L
LDH [5]: 198.8 IU/L
Na [5]: 141.8 meq/L
PL [5]: 122.8 mg/dL
RALB [5]: 3.1 g/dL
TBIL [5]: 0.0075 mg/dL
TC [5]: 75 mg/dL
TG [5]: 37.8 mg/dL
TP [5]: 5.7 g/dL
gamma-GTP [5]: 1.5 IU/L
TERMINAL_BW [6]: 254.4 g
TERMINAL_BW [7]: 288.8 g
TERMINAL_BW [8]: 371.8 g
APTT [6]: 23 s
Bas [6]: 0%
Eos [6]: 0.2%
Fbg [6]: 354 mg/dL
Hb [6]: 14.6 g/dL
Ht [6]: 43%
Lym [6]: 67.4%
MCH [6]: 20.2 pg
MCHC [6]: 33.9%
MCV [6]: 59.7 fL
Mono [6]: 4.6%
Neu [6]: 26%
PT [6]: 16.7 s
Plat [6]: 117.7 x10_4/uL
RBC [6]: 720.6 x10_4/ul
Ret [6]: 6%
WBC [6]: 116.9 x10_2/uL
APTT [7]: 24.8 s
Bas [7]: 0%
Eos [7]: 0.2%
Fbg [7]: 337 mg/dL
Hb [7]: 15.5 g/dL
Ht [7]: 45.7%
Lym [7]: 77%
MCH [7]: 20.1 pg
MCHC [7]: 33.8%
MCV [7]: 59.5 fL
Mono [7]: 3.2%
Neu [7]: 18.2%
PT [7]: 16.1 s
Plat [7]: 102.3 x10_4/uL
RBC [7]: 767.8 x10_4/ul
Ret [7]: 4.7%
WBC [7]: 128.3 x10_2/uL
APTT [8]: 27.4 s
Bas [8]: 0%
Eos [8]: 1%
Fbg [8]: 349 mg/dL
Hb [8]: 16.1 g/dL
Ht [8]: 46.7%
Lym [8]: 76.5%
MCH [8]: 19.9 pg
MCHC [8]: 34.5%
MCV [8]: 57.7 fL
Mono [8]: 2.5%
Neu [8]: 19%
PT [8]: 16.6 s
Plat [8]: 91.7 x10_4/uL
RBC [8]: 810 x10_4/ul
Ret [8]: 3.6%
WBC [8]: 133.1 x10_2/uL
KIDNEY_L [6]: 1.1 g
KIDNEY_R [6]: 1.1 g
KIDNEY_TOTAL [6]: 2.1 g
KIDNEY_L [7]: 1.2 g
KIDNEY_R [7]: 1.3 g
KIDNEY_TOTAL [7]: 2.5 g
KIDNEY_L [8]: 1.4 g
KIDNEY_R [8]: 1.4 g
KIDNEY_TOTAL [8]: 2.8 g
LIVER [6]: 11.2 g
LIVER [7]: 11.7 g
LIVER [8]: 15.5 g
A/G [6]: 1.2
ALP [6]: 1736.2 IU/L
ALT [6]: 58.6 IU/L
AST [6]: 79 IU/L
BUN [6]: 16.6 mg/dL
CRE [6]: 0.2 mg/dL
Ca [6]: 10.8 mg/dL
Cl [6]: 104.2 meq/L
DBIL [6]: 0 mg/dL
GLC [6]: 173 mg/dL
IP [6]: 8.2 mg/dL
K [6]: 4.4 meq/L
LDH [6]: 182.6 IU/L
Na [6]: 142 meq/L
PL [6]: 134.6 mg/dL
RALB [6]: 3.3 g/dL
TBIL [6]: 0.01 mg/dL
TC [6]: 74 mg/dL
TG [6]: 65.6 mg/dL
TP [6]: 5.9 g/dL
gamma-GTP [6]: 2.2 IU/L
A/G [7]: 1.2
ALP [7]: 1300.2 IU/L
ALT [7]: 54 IU/L
AST [7]: 85 IU/L
BUN [7]: 13.8 mg/dL
CRE [7]: 0.2 mg/dL
Ca [7]: 10.4 mg/dL
Cl [7]: 104.8 meq/L
DBIL [7]: 0 mg/dL
GLC [7]: 175.5 mg/dL
IP [7]: 8.7 mg/dL
K [7]: 4.2 meq/L
LDH [7]: 137.2 IU/L
Na [7]: 141.8 meq/L
PL [7]: 128.8 mg/dL
RALB [7]: 3.2 g/dL
TBIL [7]: 0.02 mg/dL
TC [7]: 70.5 mg/dL
TG [7]: 64.2 mg/dL
TP [7]: 5.8 g/dL
gamma-GTP [7]: 2.2 IU/L
A/G [8]: 1.1
ALP [8]: 1103 IU/L
ALT [8]: 54 IU/L
AST [8]: 92.5 IU/L
BUN [8]: 16.5 mg/dL
CRE [8]: 0.2 mg/dL
Ca [8]: 10.8 mg/dL
Cl [8]: 105 meq/L
DBIL [8]: 0 mg/dL
GLC [8]: 186.5 mg/dL
IP [8]: 7.5 mg/dL
K [8]: 4.1 meq/L
LDH [8]: 140.5 IU/L
Na [8]: 143 meq/L
PL [8]: 133.5 mg/dL
RALB [8]: 3.3 g/dL
TBIL [8]: 0.025 mg/dL
TC [8]: 66 mg/dL
TG [8]: 90 mg/dL
TP [8]: 6.5 g/dL
gamma-GTP [8]: 2.5 IU/L
